Experimental data as given in US20210332024A1, “MODULATORS OF PIN1 ACTIVITY AND USES THEREOF” (Yeda Research and Development Co. Ltd., priority 2019, published 2021).

Experiments:
catalytic domain of Pin1 = target: T1, catalytic domain of Pin1 (Homo sapiens, UniProt Q13526); experiment: Intact protein LC/MS labeling of Pin1; type: binding
T1 construct: The purified catalytic domain of Pin1 was incubated with the fragment library
Procedure: 993 compounds were transferred to a 384-well plate working copy by combining 0.5 μl of 20 mM stock solution of four or five compounds per well. The catalytic domain of Pin1 (2 μM) in 20 mM Tris, 75 mM NaCl, pH 7.5 was incubated with 200 μM for each compound and moderately shaken for 24 hours at 4° C. The reaction was stopped by the addition of formic acid to 0.4% (v/v) final concentration.
Liquid chromatography/mass spectroscopy runs were performed on an Acquity™ UPLC® H-class system (Waters) in positive ion mode using electrospray ionization (ESI). UPLC separation was performed on a C4 column (300 Å, 1.7 μM, […]). The column was held at 40° C., and the autosampler at 10° C. Mobile solution A was 0.1% formic acid in water and mobile phase B was 0.1% formic acid in acetonitrile. Run flow was 0.4 ml/minute; and a gradient of 20% B for 2 minutes, increasing linearly to 60% B for 3 minutes, holding at 60% B for 1.5 minutes, changing to 0% B in 0.1 minute and holding at 0% for 1.4 minutes, was used. Desolvation temperature was 500° C. with a flow rate of 1000 liters/hour. The capillary voltage was 0.69 kV and cone voltage 46 V. Raw data was processed using OpenLynx™ software and deconvoluted using the MaxEnt tool. Labeling assignment was performed as described in Resnick et al. [J Am Chem Soc 2019, 141:8951-8968].
For the screening 2 μl of each of the 448 click products as 50 μM DMSO stocks were transferred into a 384-well plate working plate. 48 μl of catalytic domain of Pin1 (2 μM) in 20 mM Tris (pH 7.5) with 75 mM NaCl were added and moderately shaken and incubated for 15 minutes at room temperature. The reaction was stopped by the addition of formic acid to 0.4% (v/v) final concentration (20 μl). The mixtures were analyzed by liquid chromatography/mass spectroscopy analogously to the electrophile library incubations described herein. Hits were retrospectively analyzed by liquid chromatography/mass spectroscopy (LC-MS) to ensure reaction completion.
For each measured well, processed peaks were searched to match the mass of unlabeled protein or common small adducts of the unlabeled protein, which were found in the control sample or labeled protein. Labeling percentage for a compound was determined as the labeling of a specific compound divided by the overall detected protein species. Peaks whose mass could not be assigned were discarded from the overall labeling calculation. Data was analyzed using a python script for processing the MaxEnt-deconvoluted spectra. Peaks were normalized from ion counts to percentages, where the highest peak is defined as 100%. The unlabeled protein mass is deduced from a reference well that contains just the protein.
The purified catalytic domain of Pin1 was incubated with the fragment library (2 μM protein, 200 μM compound; 24 hours at 4° C.), followed by intact protein liquid chromatography/mass-spectrometry (LC/MS) to identify and quantify compound labeling. FIG. 1 depicts an example of a compound identified in this manner.
Based on the docking predictions, a total of 26 compounds that featured a range of small or bulky aliphatic, arylic, biphenylic or heterocyclic side-chains (structures depicted in FIG. 5), were synthesized or purchased. In order to identify potent binders, the irreversible labeling efficiency of these second-generation compounds was assessed alongside the original screening hits under more stringent conditions, with a 1:1 ratio of protein to compound (2 μM compound; 1 hour at room temperature).
For further optimization of the lipophilic moiety, an alkyne side chain-bearing analog was prepared, which was derivatized with 448 different azides using copper-catalyzed azide-alkyne cycloaddition (CuAAC).

[1] = Thiol reactivity assay (DTNB); type: physicochemical; settings: 200 μM compound, pH 7.4, 37° C.
Procedure: 50 μM DTNB (dithionitrobenzoic acid) was incubated with 200 μM TCEP (tris(2-carboxytehyl)phosphine) in 20 mM sodium phosphate buffer (pH 7.4) with 150 mM NaCl, for 5 minutes at room temperature, in order to obtain TNB^2− (thionitrobenzoate dianion). 200 μM compounds were subsequently added to the TNB^2−, followed by immediate UV absorbance measurement at 412 nm (at 37° C.). The UV absorbance was acquired every 15 minutes for 7 hours. The assay was performed in a 384-well plate using a Spark™ 10M plate reader (Tecan). Background absorbance of compounds was subtracted by measuring the absorbance at 412 nm of each compound under the same conditions without DTNB. Compounds were measured in triplicates. The data was fitted to a second order reaction equation such that the rate constant k is the slope of ln([A][B0]/[B][A0]), where [A0] and [B0] are the initial concentrations of the compound (200 μM) and TNB^2− (100 μM) respectively, and [A] and [B] are the remaining concentrations as a function of time, as determined from the spectrometric measurement. Linear regression using Prism® software was performed to fit the rate against the first four hours of measurements.
In order to estimate the influence of the various lipophilic moieties on “warhead” reactivity [Flanagan et al., J Med Chem 2014, 57:10072-10079; Lonsdale et al., J Chem Inf Model 2017, 57:3124-3137; Dahal et al., Medchemcomm 2016, 7:864-872], the thiol reactivity of the top ten binders of the second and third generation was assessed using a high-throughput assay previously applied to the entire fragment library, as described in Resnick et al. [J Am Chem Soc 2019, 141:8951-8968]. In brief, the second-order rate constant was evaluated for a model thiol, which reflects trends in general reactivity towards thiol groups.

[2] = 2 μM Pin1 with 2 μM test compound for 15 minutes at room temperature
[3] = 2 μM Pin1 with 2 μM test compound for 1 hour at room temperature
[4] = 2 μM Pin1 with 200 μM test compound for 24 hours at 4° C.

T1 sequence (Q13526 52-163 limits assumed): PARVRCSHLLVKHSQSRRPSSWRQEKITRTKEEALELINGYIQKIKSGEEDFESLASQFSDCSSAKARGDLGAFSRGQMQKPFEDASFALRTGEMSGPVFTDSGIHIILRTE

Row | SMILES | Labeling [%] (catalytic domain of Pin1; [2]) | Reactivity Log k [1] | Reactivity k [1] [M⁻¹ s⁻¹] | Labeling [%] (catalytic domain of Pin1; [3]) | Labeling [%] (catalytic domain of Pin1; [4])
1 | COC(=O)c1ccc(-n2cc(CN(C(=O)CCl)C3CCS(=O)(=O)C3)nn2)cc1 (stereo not drawn) [Compound P1-01-B11] | 89 | −6.86 | 1.37e-07 | – | –
2 | O=C(CCl)N(Cc1cn(-c2ccc(CO)c(F)c2)nn1)C1CCS(=O)(=O)C1 (stereo not drawn) [Compound P1-01-F08] | 64 | −5.88 | 1.32e-06 | – | –
3 | O=C(CCl)N(Cc1cn(-c2cccc(Cl)c2)nn1)C1CCS(=O)(=O)C1 (stereo not drawn) [Compound P1-01-G10] | 67 | −6.92 | 1.2e-07 | – | –
4 | CC(=O)c1ccc(-n2cc(CN(C(=O)CCl)C3CCS(=O)(=O)C3)nn2)cc1 (stereo not drawn) [Compound P1-02-B04] | 62 | −5.90 | 1.26e-06 | – | –
5 | O=C(CCl)N(Cc1cn(-c2cc(Br)ccc2O)nn1)C1CCS(=O)(=O)C1 (stereo not drawn) [Compound P1-02-E11] | 70 | −5.98 | 1.04e-06 | – | –
6 | O=C(CCl)N(Cc1cn(-c2ccc(CO)cc2)nn1)C1CCS(=O)(=O)C1 (stereo not drawn) [Compound P1-02-H08] | 73 | −5.88 | 1.32e-06 | – | –
7 | O=C(CCl)N(Cc1cn(-c2ccc(O)cc2)nn1)C1CCS(=O)(=O)C1 (stereo not drawn) [Compound P1-03-C04] | 72 | −6.42 | 3.78e-07 | – | –
8 | CC(=O)c1cccc(-n2cc(CN(C(=O)CCl)C3CCS(=O)(=O)C3)nn2)c1 (stereo not drawn) [Compound P1-03-D08] | 54 | −5.92 | 1.2e-06 | – | –
9 | NS(=O)(=O)c1ccc(-n2cc(CN(C(=O)CCl)C3CCS(=O)(=O)C3)nn2)cc1 (stereo not drawn) [Compound P1-03-G07] | 73 | −5.86 | 1.37e-06 | – | –
10 | COc1ccc(-n2cc(CN(C(=O)CCl)C3CCS(=O)(=O)C3)nn2)cc1 (stereo not drawn) [Compound P1-04-B02] | 69 | −5.76 | 1.73e-06 | – | –
11 | CCN(C(=O)CCl)C1CCS(=O)(=O)C1 (stereo not drawn) [PCM-0102105] | – | −6.96 | 1.1e-07 | 0 | 85
12 | O=C(CCl)NC1CCS(=O)(=O)C1 (stereo not drawn) [PCM-0102138] | – | −6.92 | 1.2e-07 | 0 | 56
13 | CC1(NC(=O)CCl)CCS(=O)(=O)C1 (stereo not drawn) [PCM-0102230] | – | −7.05 | 8.87e-08 | 0 | 87
14 | O=C(CCl)N(C1CCCC1)C1CCS(=O)(=O)C1 (stereo not drawn) [PCM-0102313] | – | −6.97 | 1.07e-07 | – | 83
15 | O=C(CCl)N(c1ccccc1)C1C=CS(=O)(=O)C1 (stereo not drawn) [PCM-0102372] | – | – | – | – | 100
16 | Cc1ccc(N(C(=O)CCl)C2C=CS(=O)(=O)C2)cc1 (stereo not drawn) [PCM-0102539] | – | – | – | – | 100
17 | Cc1cccc(N(C(=O)CCl)C2C=CS(=O)(=O)C2)c1 (stereo not drawn) [PCM-0102579] | – | – | – | – | 100
18 | O=C(CCl)N(c1ccccc1)C1CCS(=O)(=O)C1 (stereo not drawn) [PCM-0102755] | – | −6.81 | 1.54e-07 | – | 83
19 | O=C(CCl)N(C1CCCCC1)C1CCS(=O)(=O)C1 (stereo not drawn) [PCM-0102760] | – | −7.00 | 1e-07 | – | 100
20 | O=C(CCl)N(C1CC1)C1CCS(=O)(=O)C1 (stereo not drawn) [PCM-0102832] | – | −7.22 | 6.02e-08 | – | 72
21 | O=C(CCl)N(c1ccc(F)cc1)C1C=CS(=O)(=O)C1 (stereo not drawn) [PCM-0102868] | – | – | – | – | 100
22 | O=C(CCl)NCC1CCS(=O)(=O)C1 (stereo not drawn) [PCM-0102896] | – | – | – | – | 42
23 | Cc1ccc(N(C(=O)CCl)C2C=CS(=O)(=O)C2)cc1C (stereo not drawn) [PCM-0103082] | – | – | – | – | 69
24 | CC(c1ccccc1)N(C(=O)CCl)C1CCS(=O)(=O)C1 (stereo not drawn) [Pin1-2-2] | – | −7.09 | 8.06e-08 | 27 | –
25 | O=C(CCl)N(Cc1cccc(F)c1)C1CCS(=O)(=O)C1 (stereo not drawn) [Pin1-2-5] | – | −6.88 | 1.31e-07 | 24 | –
26 | O=C(CCl)N(Cc1ccccc1-c1ccccc1)C1CCS(=O)(=O)C1 (stereo not drawn) [Pin1-2-10] | – | −6.89 | 1.3e-07 | 25 | –
27 | O=C(CCl)N(CC1CCCC1)C1CCS(=O)(=O)C1 (stereo not drawn) [Pin1-3-14, 2-chloro-N-(sulfolan-3-yl)-N-(cyclopentylmethyl)acetamide] | – | −7.15 | 7.03e-08 | – | –
28 | CC(C)(C)CN(C(=O)CCl)C1(C)CCS(=O)(=O)C1 (stereo not drawn) [Pin1-18] | – | −7.77 | 1.69e-08 | – | –
29 | O=C(CCl)N(Cc1ccccc1)C1CCS(=O)(=O)C1 (stereo not drawn) [Pin1-437] | – | −6.82 | 1.51e-07 | – | –
